System: TPM3-NTRK1-wt IC50 / primary target (e.g. CD74-ROS1-wt) IC50, Ba/F3 cells
Assay: Cell assay TRKA selectivity (TRKA potency divided by primary target potency)
Assay type: cell-based
Conditions: for TPM3-NTRK1-wt/CD74-ROS1-G2032R: TRKA selectivity ratio: TPM3-NTRK1-wt IC50 / CD74-ROS1-G2032R IC50, Ba/F3 cells; for TPM3-NTRK1-wt/CD74-ROS1-wt: TRKA selectivity ratio: TPM3-NTRK1-wt IC50 / CD74-ROS1-wt IC50, Ba/F3 cells; for TPM3-NTRK1-wt/EML4-ALK-L1196M-G1202R: TRKA selectivity ratio: TPM3-NTRK1-wt IC50 / EML4-ALK-L1196M-G1202R IC50, Ba/F3 cells; for TPM3-NTRK1-wt/EML4-ALK-wt: TRKA selectivity ratio: TPM3-NTRK1-wt IC50 / EML4-ALK-wt IC50, Ba/F3 cells
In short: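 Ratio of TRKA to primary-target cellular IC50 (e.g. TPM3-NTRK1-wt/CD74-ROS1-wt), grouped into bins A >30, B >10, C ≥1, D <1. Each IC50 came from engineered Ba/F3 fusion lines grown without IL-3, dosed for 72 h and read as CellTiter-Glo luminescence, with a four-parameter logistic fit.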

| Compound | TPM3-NTRK1-wt/CD74-ROS1-G2032R | TPM3-NTRK1-wt/CD74-ROS1-wt | TPM3-NTRK1-wt/EML4-ALK-L1196M-G1202R | TPM3-NTRK1-wt/EML4-ALK-wt |
| --- | --- | --- | --- | --- |
| CCn1nnc2c1-c1cnc(N)c(c1)O[C@H](C)c1cc(F)ccc1-c1sncc1C2 [Example 93, (19R)-3-ethyl-16-fluoro-19-methyl-20-oxa-11-thia-3,4,5,10,23-pentaazapentacyclo[19.3.1.0^2,^6.0^8,^12.0^13,^18]pentacosa-1(24),2(6),4,8(12),9,13,15,17,21(25),22-decaen-22-amine] | A (bin A for very high selectivity, ratio>30-fold) | A (bin A for very high selectivity, ratio>30-fold) | C (bin C for moderate selectivity, ratio≥1) | B (bin B for high selectivity, ratio>10-fold) |
| C[C@H]1Oc2cc(cnc2N)-c2c(C#N)nn(C)c2Cc2scnc2-c2ccc(F)cc21 [Example 94, (19R)-22-amino-16-fluoro-5,19-dimethyl-20-oxa-9-thia-4,5,11,23-tetraazapentacyclo[19.3.1.0^2,^6.0^8,^12.0^13,^18]pentacosa-1(24),2(6),3,8(12),10,13,15,17,21(25),22-decaene-3-carbonitrile] | A (bin A for very high selectivity, ratio>30-fold) | A (bin A for very high selectivity, ratio>30-fold) | A (bin A for very high selectivity, ratio>30-fold) | A (bin A for very high selectivity, ratio>30-fold) |
| CCn1nnc2c1-c1cnc(N)c(c1)O[C@H](C)c1cc(F)ccc1-c1nscc1C2 [Example 95, (19R)-3-ethyl-16-fluoro-19-methyl-20-oxa-10-thia-3,4,5,11,23-pentaazapentacyclo[19.3.1.0^2,^6.0^8,^12.0^13,^18]pentacosa-1(24),2(6),4,8,11,13,15,17,21(25),22-decaen-22-amine] | A (bin A for very high selectivity, ratio>30-fold) | A (bin A for very high selectivity, ratio>30-fold) | C (bin C for moderate selectivity, ratio≥1) | A (bin A for very high selectivity, ratio>30-fold) |
| CCn1nc(C(F)(F)F)c2c1-c1cnc(N)c(c1)O[C@H](C)c1cc(F)ccc1-c1nn(C)cc1C2 [Example 96, (19R)-3-ethyl-16-fluoro-10,19-dimethyl-5-(trifluoromethyl)-20-oxa-3,4,10,11,23-pentaazapentacyclo[19.3.1.0^2,^6.0^8,^12.0^13,^18]pentacosa-1(24),2(6),4,8,11,13,15,17,21(25),22-decaen-22-amine] | A (bin A for very high selectivity, ratio>30-fold) | A (bin A for very high selectivity, ratio>30-fold) | C (bin C for moderate selectivity, ratio≥1) | A (bin A for very high selectivity, ratio>30-fold) |
| Cc1cc2n(n1)-c1ccc(F)cc1[C@@H](C)Oc1cc(cnc1N)-c1c(C#N)nn(C)c1C2 [Example 97, (19R)-22-amino-16-fluoro-5,10,19-trimethyl-20-oxa-4,5,11,12,23-pentaazapentacyclo[19.3.1.0^2,^6.0^8,^12.0^13,^18]pentacosa-1(24),2(6),3,8,10,13,15,17,21(25),22-decaene-3-carbonitrile] | A (bin A for very high selectivity, ratio>30-fold) | A (bin A for very high selectivity, ratio>30-fold) | B (bin B for high selectivity, ratio>10-fold) | A (bin A for very high selectivity, ratio>30-fold) |
| CCn1ncc2c1-c1cnc(N)c(c1)O[C@H](C)c1cc(F)ccc1-n1nc(OC)cc1C2 [Example 98, (19R)-3-ethyl-16-fluoro-10-methoxy-19-methyl-20-oxa-3,4,11,12,23-pentaazapentacyclo[19.3.1.0^2,^6.0^8,^12.0^13,^18]pentacosa-1(24),2(6),4,8,10,13,15,17,21(25),22-decaen-22-amine] | A (bin A for very high selectivity, ratio>30-fold) | A (bin A for very high selectivity, ratio>30-fold) | C (bin C for moderate selectivity, ratio≥1) | B (bin B for high selectivity, ratio>10-fold) |
| CCn1ncc2c1-c1cnc(N)c(c1)O[C@H](C)c1cc(F)ccc1-c1nocc1C2 [Example 99, (19R)-3-ethyl-16-fluoro-19-methyl-10,20-dioxa-3,4,11,23-tetraazapentacyclo[19.3.1.0^2,^6.0^8,^12.0^13,^18]pentacosa-1(24),2(6),4,8,11,13,15,17,21(25),22-decaen-22-amine] | A (bin A for very high selectivity, ratio>30-fold) | A (bin A for very high selectivity, ratio>30-fold) | C (bin C for moderate selectivity, ratio≥1) | B (bin B for high selectivity, ratio>10-fold) |
| C[C@H]1Oc2cc(cnc2N)-c2c(C#N)nn(C)c2Cc2cccnc2-c2ccc(F)cc21 [Example 100, (20R)-23-amino-17-fluoro-5,20-dimethyl-21-oxa-4,5,12,24-tetraazapentacyclo[20.3.1.0^2,^6.0^8,^13.0^14,^19]hexacosa-1(25),2(6),3,8(13),9,11,14,16,18,22(26),23-undecaene-3-carbonitrile] | A (bin A for very high selectivity, ratio>30-fold) | A (bin A for very high selectivity, ratio>30-fold) | A (bin A for very high selectivity, ratio>30-fold) | A (bin A for very high selectivity, ratio>30-fold) |
| Cn1nc(C#N)c2c1Cc1cccnc1-c1ccc(F)cc1COc1cc-2cnc1N [Example 101, 23-amino-17-fluoro-5-methyl-21-oxa-4,5,12,24-tetraazapentacyclo[20.3.1.0^2,^6.0^8,^13.0^14,^19]hexacosa-1(25),2(6),3,8(13),9,11,14,16,18,22(26),23-undecaene-3-carbonitrile] | A (bin A for very high selectivity, ratio>30-fold) | A (bin A for very high selectivity, ratio>30-fold) | A (bin A for very high selectivity, ratio>30-fold) | A (bin A for very high selectivity, ratio>30-fold) |
| CCn1ncc2c1-c1cnc(N)c(c1)O[C@H](C)c1cc(F)ccc1-n1nc(C(F)F)cc1C2 [Example 102, (19R)-10-(difluoromethyl)-3-ethyl-16-fluoro-19-methyl-20-oxa-3,4,11,12,23-pentaazapentacyclo[19.3.1.0^2,^6.0^8,^12.0^13,^18]pentacosa-1(24),2(6),4,8,10,13,15,17,21(25),22-decaen-22-amine] | A (bin A for very high selectivity, ratio>30-fold) | A (bin A for very high selectivity, ratio>30-fold) | C (bin C for moderate selectivity, ratio≥1) | B (bin B for high selectivity, ratio>10-fold) |
